Like-named read-outs stand apart in the source and are kept apart here.
Experiment: Mouse blood and tissue PK (LC/MS-MS)
Type: in vivo
Conditions: mouse, tumor, oral
Experimental: For single-dose PKPD study, mice were randomized and assigned into groups (n = 3/dose/time point). […] Blood and tissues, including the tumor, brain, colon, ear skin, and muscle, were harvested at indicated time points. […] The whole blood, tumor, brain, colon, and ear skin concentrations of RMC-6236 were determined using liquid chromatography–tandem mass spectrometry (LC/MS-MS) methods. […] After thorough mixing and centrifugation, the supernatant was diluted with water or directly analyzed on a Sciex 5500 or Sciex 6500+ triple quadrupole mass spectrometer equipped with an ACQUITY or Shimadzu UPLC system. […] Bioanalysis on blood and tissue samples from xenograft models was run at Pharmaron and Wuxi AppTec. Concentrations reported as below the quantification limit were treated as zero for PK analysis. PK parameters were calculated by noncompartmental analysis of the concentration–time profiles using Phoenix WinNonLin (version 8.3 Certara). Apparent terminal elimination half-life (t1/2) values were calculated as ln(2)/k, where k represents the terminal elimination rate constant. Area under the concentration–time curve (AUC) values were estimated using a linear trapezoidal method. AUClast values were calculated from the dosing time to the last quantifiable concentration. Maximum concentration (Cmax) was recorded as observed.

`CCn1c(-c2cc(N3CCN(C)CC3)cnc2[C@H](C)OC)c2c3cc(ccc31)-c1csc(n1)C[C@H](NC(=O)[C@H]1C[C@@H]1C)C(=O)N1CCC[C@H](N1)C(=O)OCC(C)(C)C2` [RMC-6236] gave a concentration at 4 h (25 mg/kg, HPAC #4, 25 mg/kg, individual animals, read-out: RMC-6236 (nM) Tumor) of 4090 nM, a concentration at 8 h (25 mg/kg, HPAC #4, 25 mg/kg, 8h, individual animals, read-out: RMC-6236 (nM) Tumor) of 4080 nM and a concentration at 24 h (25 mg/kg, HPAC #4, 25 mg/kg, 24h, individual animals, read-out: RMC-6236 (nM) Tumor) of 1260 nM. The concentration at 8 h (25 mg/kg, KP-4, study KP-4 #3, 25 mg/kg, 8h, read-out: RMC-6236 (nM) Tumor) was 3260 nM, the concentration at 24 h (25 mg/kg, KP-4, study KP-4 #3, 25 mg/kg, 24h, read-out: RMC-6236 (nM) Tumor) was 758 nM and the concentration at 8 h (25 mg/kg, KP-4, study KP-4 #4, 25 mg/kg, 8h, read-out: RMC-6236 (nM) Tumor) was 3030 nM. The concentration at 24 h (25 mg/kg, KP-4, study KP-4 #4, 25 mg/kg, 24h, read-out: RMC-6236 (nM) Tumor) was 840 nM, the concentration at 48 h (25 mg/kg, KP-4, study KP-4 #4, 25 mg/kg, 48h, read-out: RMC-6236 (nM) Tumor) was 312 nM and the concentration at 4 h (25 mg/kg, KP-4, study KP-4 #5, 25 mg/kg, read-out: RMC-6236 (nM) Tumor) was 2460 nM. The concentration at 24 h (25 mg/kg, KP-4, study KP-4 #5, 25 mg/kg, 24h, read-out: RMC-6236 (nM) Tumor) was 859 nM, the concentration at 48 h (25 mg/kg, KP-4, study KP-4 #5, 25 mg/kg, 48h, read-out: RMC-6236 (nM) Tumor) was 281 nM and the concentration at 8 h (25 mg/kg, KP-4, study KP-4 #6, 25 mg/kg, 8h, read-out: RMC-6236 (nM) Tumor) was 4160 nM. For the same molecule, the concentration at 24 h (25 mg/kg, KP-4, study KP-4 #6, 25 mg/kg, 24h, read-out: RMC-6236 (nM) Tumor) was 1500 nM, the concentration at 48 h (25 mg/kg, KP-4, study KP-4 #6, 25 mg/kg, 48h, read-out: RMC-6236 (nM) Tumor) was 739 nM and the concentration at 1 h (25 mg/kg, Model Development Dataset, 25mg/kg_study8, read-out: Tumor Concentration) was 457 nM. The concentration at 2 h (25 mg/kg, Model Development Dataset, 25mg/kg_study8, 2 h, read-out: Tumor Concentration) was 1530 nM, the concentration at 8 h (25 mg/kg, Model Development Dataset, 25mg/kg_study8, 8 h, read-out: Tumor Concentration) was 2320 nM and the concentration at 24 h (25 mg/kg, Model Development Dataset, 25mg/kg_study8, 24 h, read-out: Tumor Concentration) was 995 nM. The concentration at 240 h (25 mg/kg, Model Development Dataset, 25mg/kg_study8r (doses every 24 h, 0-[…]), read-out: Tumor Concentration) was 410 nM, the concentration at 1 h (25 mg/kg, Model Validation Dataset, 25mg/kg_study6, read-out: Tumor Concentration) was 358 nM and the concentration at 8 h (25 mg/kg, Model Validation Dataset, 25mg/kg_study6, 8 h, read-out: Tumor Concentration) was 2570 nM. For the same molecule, the concentration at 24 h (25 mg/kg, Model Validation Dataset, 25mg/kg_study6, 24 h, read-out: Tumor Concentration) was 890 nM, the concentration at 48 h (25 mg/kg, Model Validation Dataset, 25mg/kg_study6, 48 h, read-out: Tumor Concentration) was 690 nM and the concentration at 72 h (25 mg/kg, Model Validation Dataset, 25mg/kg_study6, 72 h) was 433 nM. The concentration at 8 h (25 mg/kg, NCI-H441 xenograft tumor, study NCI-H441#6, 25 mg/kg, 8h, read-out: RMC-6236 (nM) Tumor) was 2380 nM, the concentration at 24 h (25 mg/kg, NCI-H441 xenograft tumor, study NCI-H441#6, 25 mg/kg, 24h, read-out: RMC-6236 (nM) Tumor) was 989 nM and the concentration at 48 h (25 mg/kg, NCI-H441 xenograft tumor, study NCI-H441#6, 25 mg/kg, 48h, read-out: RMC-6236 (nM) Tumor) was 641 nM. It also gave a concentration at 8 h (25 mg/kg, NCI-H441 xenograft tumor, study NCI-H441#8, 25 mg/kg, 8h, read-out: RMC-6236 (nM) Tumor) of 2740 nM, a concentration at 24 h (25 mg/kg, NCI-H441 xenograft tumor, study NCI-H441#8, 25 mg/kg, 24h, read-out: RMC-6236 (nM) Tumor) of 1080 nM and a concentration at 4 h (25 mg/kg, sheet colon, KP-4, KP-4 #5, 25 mg/kg, read-out: RMC-6236 (nM) Tumor) of 5860 nM. It also gave a concentration at 24 h (40 mg/kg, KP-4, study KP-4 #4, 40 mg/kg, 24h, read-out: RMC-6236 (nM) Tumor) of 1620 nM, a concentration at 48 h (40 mg/kg, KP-4, study KP-4 #4, 40 mg/kg, 48h, read-out: RMC-6236 (nM) Tumor) of 661 nM and a concentration at 1 h (40 mg/kg, Model Development Dataset, 40mg/kg_study8, read-out: Tumor Concentration) of 947 nM. For the same molecule, the concentration at 2 h (40 mg/kg, Model Development Dataset, 40mg/kg_study8, 2 h, read-out: Tumor Concentration) was 3090 nM, the concentration at 8 h (40 mg/kg, Model Development Dataset, 40mg/kg_study8, 8 h, read-out: Tumor Concentration) was 3380 nM and the concentration at 24 h (40 mg/kg, Model Development Dataset, 40mg/kg_study8, 24 h, read-out: Tumor Concentration) was 1810 nM. The concentration at 240 h (40 mg/kg, Model Development Dataset, 40mg/kg_study8r (doses every 24 h, 0-[…]), read-out: Tumor Concentration) was 876 nM, the concentration at 2 h (40 mg/kg, NCI-H441 xenograft tumor, study NCI-H441#8, 40 mg/kg, 2h, read-out: RMC-6236 (nM) Tumor) was 3260 nM and the concentration at 8 h (40 mg/kg, NCI-H441 xenograft tumor, study NCI-H441#8, 40 mg/kg, 8h, read-out: RMC-6236 (nM) Tumor) was 2820 nM. It also gave a concentration at 4 h (50 mg/kg, HPAC #3, 50 mg/kg, individual animals, read-out: RMC-6236 (nM) Tumor) of 4620 nM, a concentration at 8 h (50 mg/kg, HPAC #3, 50 mg/kg, 8h, individual animals, read-out: RMC-6236 (nM) Tumor) of 6090 nM and a concentration at 24 h (50 mg/kg, HPAC #3, 50 mg/kg, 24h, individual animals, read-out: RMC-6236 (nM) Tumor) of 3810 nM. It also gave a concentration at 48 h (50 mg/kg, HPAC #3, 50 mg/kg, 48h, individual animals, read-out: RMC-6236 (nM) Tumor) of 1440 nM, a concentration at 8 h (50 mg/kg, KP-4, study KP-4 #3, 50 mg/kg, 8h, read-out: RMC-6236 (nM) Tumor) of 5580 nM and a concentration at 24 h (50 mg/kg, KP-4, study KP-4 #3, 50 mg/kg, 24h, read-out: RMC-6236 (nM) Tumor) of 2070 nM. It also gave a concentration at 48 h (50 mg/kg, KP-4, study KP-4 #3, 50 mg/kg, 48h, read-out: RMC-6236 (nM) Tumor) of 489 nM, a concentration at 1 h (50 mg/kg, Model Validation Dataset, 50mg/kg_study6, read-out: Tumor Concentration) of 1310 nM and a concentration at 8 h (50 mg/kg, Model Validation Dataset, 50mg/kg_study6, 8 h, read-out: Tumor Concentration) of 4800 nM.

Source: article PMC11149917, “Translational and Therapeutic Evaluation of RAS-GTP Inhibition by RMC-6236 in RAS-Driven Cancers” (Cancer Discovery, 2024)
